Reference: article PMC9917023, “Stabilization of Monomeric Tau Protein by All D-Enantiomeric Peptide Ligands as Therapeutic Strategy for Alzheimer’s Disease and Other Tauopathies” (International Journal of Molecular Sciences, 2023)

System: brain endothelial cells (RBMVEC) and astroglial cells (CTX TNA2)
Procedure: Each peptide was tested at different time points in triplicate next to an unseeded negative control (“Empty”) and quantitatively analyzed via HPLC using a calibration curve to determine the concentration of the peptide in the receiving chamber at each point in time (Figure 11). From these values, the volume of each chamber, and the respective time, a Papp permeability coefficient in cm²/s was calculated for each substance to represent its ability to cross the in vitro blood–brain barrier model.
An amount equaling 1 mg/mL TF2D-5 (A) or TF2D-5a (B) was added to an insert that was seeded and covered with endothelial and astroglial cells, representing the in vitro blood–brain barrier, or an empty insert serving as a control. After different time points, samples were taken and analyzed by quantitative HPLC analysis. Data given as mean ± SD out of three independent replicates.
Brain endothelial cells from rats and astroglial cells were used to cultivate the different sides of the porous membrane.
Brain endothelial cells from rats (RBMVEC, Cell Applications Inc., R840-05a, San Diego, CA, USA) were cultivated in Complete Classic medium (Cell Systems, Kirkland, WA, USA, 4Z0-500), and rat astroglial cells (CTX TNA2, ATCC, CRL-2006) were cultivated in Complete Classic medium (Cell Systems, Kirkland, WA, USA, 4Z0-500). The cells were allowed to grow in a humidified incubator with 5% CO2 at 37 °C and a maximum of 20 passages. The cells were passaged every 3 to 5 days, according to their confluence.
In order to set up the in vitro BBB model, the astroglial cells were seeded at a density of 600.000 cells/cm² on the outer (basolateral, “brain”) side of an insert with a porous membrane (Corning Transwell polycarbonate membrane cell culture inserts, CLS3415, 3 µM pore size) and allowed to grow/adhere overnight in the Complete Classic medium. The next day, brain endothelial cells were seeded at a density of 600.000 cells/cm² on the inner side (apical, “blood”) of the corresponding membrane. The seeded inserts were then cultivated to grow to full confluence over a period of 5 to 7 days, with the medium renewed daily. […] Prior to this, TEER (transendothelial electrical resistance values) were measured in each well to ensure the integrity of the in vitro BBB. At 0, 30, 60, 90, 120, 150, 180, and 240 min, 50 µL of the medium out of the outer chamber was taken and analyzed by HPLC. This 50 µL would then be replaced by the same amount of fresh serum-free medium to keep the fluid levels equal across both chambers. This slight dilution was factored into the following calculations. Furthermore, a dilution series of each reagent was analyzed alongside the samples as a calibration to quantify the analysis. […] The Papp values were calculated as follows (higher is better): Papp =(V/A∗C)∗(Dc/Dt)

SMILES | Papp permeability coefficient [×10⁻⁶ cm/s]
O=C1OC2(c3ccc(O)cc3Oc3cc(O)ccc32)c2ccccc21 [Fluorescein, reference compound] | 0.886
Cn1c(=O)c2c(ncn2C)n(C)c1=O [Caffeine, reference compound] | 31.8
